Values quoted from earlier work in patent US9340307B2, “Stable laquinimod preparations” (priority 2007, dated 2016).

Tested on: acute experimental autoimmune encephalomyelitis (aEAE) model
Settings: U.S. Pat. No. 6,077,851

Question: With `CCN(C(=O)c1c(O)c2c(Cl)cccc2n(C)c1=O)c1ccccc1` [Laquinimod, N-ethyl-N-phenyl-1,2-dihydro-4-hydroxy-5-chloro-1-methyl-2-oxoquinoline-3-carboxamide] as the molecule, how does the “effectiveness in the aEAE model” value read?
Answer: effective
